Measured values: ChEMBL document CHEMBL1139161, “[d4U]-butyne-[HI-236] as a non-cleavable, bifunctional NRTI/NNRTI HIV-1 reverse-transcriptase inhibitor” (Bioorg Med Chem Lett, 2007)

Columns and labels:
[1] = system: Human immunodeficiency virus 1; assay: Antiviral activity against HIV1 3B in MT2 cells assessed as inhibition of viral-mediated T-cell death by MTT method; assay type: functional, organism-based; details: Human immunodeficiency virus 1, 3B
[2] = Therapeutic index, ratio of IC50 for human MT2 cells to EC50 for HIV1 3B; assay type: cell-based; details: read-out: Ratio IC50/EC50
MT2 = assay: Cytotoxicity against human MT2 cells; assay type: cell-based

Row | Structure (SMILES) | EC50 [1] [nM] | selectivity ratio [2] | IC50 (MT2) [nM]
1 | COc1ccc(OC)c(CCNC(=S)Nc2ccc(Br)cn2)c1 | 42 | > 24 | > 1000
2 | C#CCCOc1ccc(OC)cc1CCNC(=S)Nc1ccc(Br)cn1 | 23 | > 44 | > 1000
3 | COc1ccc(OCCC#Cc2cn(C3C=CC(CO)O3)c(=O)[nH]c2=O)c(CCNC(=S)Nc2ccc(Br)cn2)c1 (configuration not stated) | 250 | 68 | 17000
4 | Cc1cn([C@H]2C=C[C@@H](CO)O2)c(=O)[nH]c1=O [STAVUDINE] | 2000 | > 50 | > 100000
